Test [1] has as its target T1, CB1R (hCB1R) (Homo sapiens, UniProt P21554).
T1 construct: gene CNR1; expressed in HEK-293T cells; membrane fractions
As to the kind of experiment: [3H]CP-55, […] competition binding, HEK-293T membranes. The conditions noted are these: read-out: CB1R Ki [μM]^[b].

Assay in test [2]: as above
Also on record: species or system Homo sapiens. To be noted: read-out: CB1R Ki [μM]^[b].

The target in test [3] is T2, CB2R (hCB2R) (Homo sapiens, UniProt P34972).
T2 construct: gene CNR2; expressed in HEK-293T cells
Description: inhibition of forskolin-induced cAMP, HEK-293T cells. It is filed as cell-based. To be noted: read-out: Wild type / pEC50 (converted).

Test [4] has as its target T3, CB2R (hCB2R) (Homo sapiens, UniProt P34972, V36M).
T3 construct: gene CNR2; expressed in HEK-293T cells
Described as above. It is filed as cell-based. The conditions noted are these: read-out: Val36^1.35Met / pEC50 (converted).

In test [5] the target is T4, CB2R (hCB2R) (Homo sapiens, UniProt P34972, A282M).
T4 construct: gene CNR2; expressed in HEK-293T cells
Described as above. It is filed as cell-based. To be noted: read-out: Ala282^7.36Met / pEC50 (converted).

Test [6] addresses T2, CB2R (hCB2R). Description: [3H]CP-55, […] competition binding, HEK-293T membranes. To be noted: read-out: CB2R Ki [μM]^[b].
For test [7], the target named is T1, CB1R (hCB1R). As to the kind of experiment: biochemical. It is filed as HEK-293T membranes. Further details: [3H]CP-55,940 competition radioligand binding, membrane filtration, scintillation counting. An excerpt:
(§1) In vitro binding affinities of the alleged bitopic ligands 18–29 (Table 1) and the corresponding monovalent counterparts 6–17 (Table S1) were obtained from [^3H]CP‐55,940 competition‐binding assays using membrane fractions of the human CB1R and CB2R, respectively, expressed in HEK‐293T cells. […] Addition of the second pharmacophore makes bivalent ligands capable of binding CB2R in a selective manner. Optimal spacer length for N1‐ and N2‐ethyl derivatives is from 10 (n=8) to 14 (n=12) methylene units. S23 Aldrich, Madrid, Spain). Membranes were resuspended in the corresponding buffer and were incubated (90 min at 30 °C) with the radioligand and each compound at a high concentration (40 μM) with the purpose of determining the % of radioligand displacement. […] Nonspecific binding was determined with 10 μM WIN55212-2 (Sigma-Aldrich, Madrid, Spain) and total radioligand binding by incubation with the membranes in the absence of any compound. Filtration was performed by a Harvester filtermate (PerkinElmer, Boston, MA, USA) with Filtermat A GF/C filters pretreated with polyethylenimine 0.05%. After filtering, the filter was washed nine times with binding buffer and dried, and a melt-on scintillation sheet (MeltilexTM A, PerkinElmer, Boston, MA, USA) was melted onto it. Then, radioactivity was quantified by a liquid scintillation counter (Wallac MicroBeta Trilux, PerkinElmer, Boston, MA, USA). Competition binding data were analyzed by using GraphPad Prism, version 5.02 (GraphPad Software Inc., San Diego, CA, USA), and Ki values are expressed as the mean ± SEM of at least three experiments performed in triplicate for each. 2.2- cAMP determination assays. Determination of cAMP levels in HEK293 cells stably expressing the CB2R was performed using the Lance-Ultra cAMP kit (PerkinElmer) according to the manufacturer’s instructions. Briefly, HEK293 cells expressing the CB2R were dispensed in white 384-well microplates at a density of 5.000 cells per well. Finally, cells were incubated for 60 min at room temperature with HTRF assay reagents, and fluorescence at 665 nm was analyzed on a PHERAstar Flagship microplate reader equipped with an HTRF optical module (BMG Labtech). Data analysis was made based on the fluorescence ratio emitted by the labeled cAMP probe (665 nm) over the light emitted by the europium cryptate-labeled anti-cAMP antibody (620 nm). A standard curve was used to calculate cAMP concentration. Forskolin stimulated cAMP levels were normalized to 100%. Data was analyzed by using […]

Test [8] addresses T2, CB2R (hCB2R). As to the kind of experiment: biochemical. The format is HEK-293T membranes. Also on record: [3H]CP-55,940 competition radioligand binding, membrane filtration, scintillation counting.
Excerpt: as §1

Where only a bound is given, the exact number is not on record here.

By Ki is commonly meant the dissociation constant of the complex between target and ligand, obtained from inhibition or displacement.

T1 sequence (P21554 whole entry): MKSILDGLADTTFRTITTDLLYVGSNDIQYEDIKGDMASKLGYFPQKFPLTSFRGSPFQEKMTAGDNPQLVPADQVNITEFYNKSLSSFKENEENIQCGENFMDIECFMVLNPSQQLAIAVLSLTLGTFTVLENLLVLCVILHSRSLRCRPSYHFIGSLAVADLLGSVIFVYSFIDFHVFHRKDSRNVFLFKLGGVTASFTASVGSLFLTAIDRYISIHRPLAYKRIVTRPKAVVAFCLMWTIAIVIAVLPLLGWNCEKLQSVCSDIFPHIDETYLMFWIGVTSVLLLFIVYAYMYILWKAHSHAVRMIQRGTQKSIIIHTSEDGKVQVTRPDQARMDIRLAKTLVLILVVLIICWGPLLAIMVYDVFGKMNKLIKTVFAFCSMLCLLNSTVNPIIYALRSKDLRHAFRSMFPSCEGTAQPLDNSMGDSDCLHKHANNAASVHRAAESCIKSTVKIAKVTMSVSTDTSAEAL
T2 sequence (P34972 whole entry): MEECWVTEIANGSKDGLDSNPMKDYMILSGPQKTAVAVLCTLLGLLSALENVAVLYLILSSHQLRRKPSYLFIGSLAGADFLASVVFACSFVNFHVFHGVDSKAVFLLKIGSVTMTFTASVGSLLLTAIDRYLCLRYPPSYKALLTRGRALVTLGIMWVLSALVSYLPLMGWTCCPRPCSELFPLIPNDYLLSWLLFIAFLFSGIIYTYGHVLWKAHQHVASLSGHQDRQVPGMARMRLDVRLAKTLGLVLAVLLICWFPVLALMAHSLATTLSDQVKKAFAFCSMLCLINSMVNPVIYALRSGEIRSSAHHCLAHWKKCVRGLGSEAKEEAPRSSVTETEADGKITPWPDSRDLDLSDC
T3 sequence (P34972 whole entry V36M): as the sequence (P34972 whole entry) above, with V36M counted along it
T4 sequence (P34972 whole entry A282M): as the sequence (P34972 whole entry) above, with A282M counted along it

`CCCCCCC(C)(C)c1cc(OCCCCCCCCCCCCCCCCOc2cc(C(C)(C)CCCCCC)cc3c2-c2c(cnn2CC)C(C)(C)O3)c2c(c1)OC(C)(C)c1cnn(CC)c1-2` [compound 28, bivalent chromenopyrazole 28 (R1 = N1-Et, n = 14)]: the inhibitory constant (Ki) (on CB1R (hCB1R) [1]; in test [2]) was more than 40 µM in each case.
Take `CCCCCCC(C)(C)c1cc(OCCCCCCCCCCCCCCOc2cc(C(C)(C)CCCCCC)cc3c2-c2nn(CC)cc2C(C)(C)O3)c2c(c1)OC(C)(C)c1cn(CC)nc1-2` [compound 27]: the EC50 at CB2R (hCB2R) [3] was 25.1 nM; on CB2R (hCB2R) [4] it was 79.4 nM; on CB2R (hCB2R) [5] it was 50.1 nM. For the same compound, the Ki is more than 40 µM at CB1R (hCB1R) [1] and 0.3 ± 0.1 µM at CB2R (hCB2R) [6].
`CCCCCCCCCCCCCCOc1cc(C(C)(C)CCCCCC)cc2c1-c1nn(CC)cc1C(C)(C)O2` [compound 15, 15]: the Ki on CB1R (hCB1R) [7] and on CB2R (hCB2R) [8] was more than 40000 nM each time.
For `CCCCCCCCCCCCCCCCOc1cc(C(C)(C)CCCCCC)cc2c1-c1nn(CC)cc1C(C)(C)O2` [compound 17, 17], the Ki at CB1R (hCB1R) [7] and on CB2R (hCB2R) [8] was more than 40000 nM throughout.
Consider `CCCCCCC(C)(C)c1cc(OCCCCCCCCCCOc2cc(C(C)(C)CCCCCC)cc3c2-c2c(cnn2CC)C(C)(C)O3)c2c(c1)OC(C)(C)c1cnn(CC)c1-2` [compound 22, bivalent chromenopyrazole 22 (R1 = N1-Et, n = 8)], for which the EC50 at CB2R (hCB2R) [3] was 79.4 nM; at CB2R (hCB2R) [4], 20 nM; at CB2R (hCB2R) [5], 63.1 nM. The results for the Ki on CB1R (hCB1R) [1] and at CB2R (hCB2R) [6] were more than 40 µM and 0.9 ± 0.2 µM, respectively.
